Assay results: patent US9066965B1, “Purified limonin glucoside for prevention and treatment of chronic diseases” (The United States of America, as represented by the …, priority 2012, dated 2015)
Several values for one entry are separate records, joined by “and”; a condition that tells them apart may be missing. Equal values may be shown once.

Legend:
[1] = system: gamma glutamyl transferase (GGT); assay: Plasma GGT activity (Integra 400); type: in vivo, human; conditions: 56 days
Description: (§1) CMP performed on serum samples at the chemistry laboratory of University of California Medical Center by using the Beckman Coulter DxC800. GGT and CKMB were determined in the EDTA plasma. GGT activity was determined by using Integra 400 Chemistry Analyzer, Roche Diagnostics. CKMB concentration was determined by using the Multiplex kits from Mesoscale Discovery (Gaithersburg, Md. 20877).
(§2) SAS PROC MIXED was used to fit the cross-over model (Littell R C, Milliken G A, Stroup W W, Wolfinger R D, Schabenberger O. SAS System for Mixed Models. Cay, N.C.: SAS Institute Inc.; 2006). Transformations were used when appropriate to stabilize the variances among the diets and periods. The fixed effects were order, diet, the interaction and the covariate; and the random effect was subjects within order. The test for order is a test for carry-over effect. […] Comparisons were made between the values at the end of placebo and LG treatments and using the baseline data as a covariate. Results are presented as means±SEM. Differences were considered statistically significant for P value<0.05.

[2] = Rules Based Medicine human multi-analyte panel (MAP 1.6), plasma; type: in vivo; set-up: Epidermal growth factor: unit not given here
Description: Plasma samples prepared from blood collected in EDTA-containing tubes were stored at −80° C. until tested. The samples were thawed at room temperature, vortexed, spun at 13,000×g for 5 minutes for clarification and 100 uL aliquots were removed for MAP analysis into a master microtiter plate. Using automated pipetting, an aliquot of each sample was introduced into one of the capture microsphere multiplexes of the Human MAP 1.6. This MAP comprised of 89 antigens that included markers for oxidative stress, inflammation, immune status, T2DM, CVD, blood clotting, cancer, liver and kidney functions. All plasma samples were tested in duplicate. The mixture of sample and capture microspheres were thoroughly mixed and incubated at room temperature for 1 hour. Multiplexed cocktails of biotinylated, reporter antibodies for each multiplex were then added robotically and after thorough mixing, were incubated for an additional hour at room temperature. Multiplexes were developed using an excess of streptavidin-phycoerythrin solution which was thoroughly mixed into each multiplex and incubated for 1 hour at room temperature. The volume of each multiplexed reaction was reduced by vacuum filtration and the volume increased by dilution into matrix buffer for analysis. Analysis was performed in a Luminex 100 instrument and the resulting data stream was interpreted using proprietary data analysis software developed at Rules-Based Medicine. For each multiplex, both calibrators and controls were included on each microtiter plate. 8-point calibrators were run in the first and last column of each plate and 3-level controls were included in duplicate. Testing results were determined first for the high, medium and low controls for each multiplex to ensure proper assay performance. Unknown values for each of the analytes localized in a specific multiplex were determined using 4 and 5 parameter, weighted and non-weighted curve fitting algorithms included in the data analysis package. The intra-sample coefficient of variance (CV) for all antigens with concentrations above the lowest detectable dose (LDD) was less than 20%, and was less than 10% for more than 50% of the antigens tested.
Results are presented as means±SEM.

[3] = system: alanine amino transferase (ALT); assay: Serum alanine amino transferase (CMP); type: in vivo, human; conditions: 500 mg/d, 56 days
Description: as §1, §2

[4] = Adverse effects and tolerability of the LG drink; type: in vivo, human
Description: A total of 11 adverse events were reported by 6 subjects for the entire duration of the study (data not shown). Some of these events such as volunteer hurting their back or hand were definitely unrelated to the drinks, while others like a weird taste, dry throat seem related to the drinks, still others such as mild cold or frequent urinating, or rash on chest may or may not be related to the drinks. […] Since the placebo was also the carrier of LG, all adverse events may be due to the placebo drinks.

[5] = End LG, 500 mg/d, 56 days, n = 10, mean ± SEM

CC1(C)O[C@H]2CC(=O)OC[C@]23[C@H]2CC[C@@](C)([C@@H](O[C@@H]4O[C@H](CO)[C@@H](O)[C@H](O)[C@H]4O)c4ccoc4)[C@@]4(O[C@@H]4C(=O)O)[C@]2(C)C(=O)C[C@@H]13 [LG, limonin glucoside]
GGT ([1]; EDTA plasma, End LG, 500 mg/d, n = 10, mean ± SEM): 25.2 ± 8.0 U/L
decrease of plasma activity of GGT ([1]; vs end of placebo treatment, 0.5 g/d, p=0.001): 33.8% and 33%
Adiponectin [2, 5]: 3.19 ± 0.70 µg/mL
Alpha-1 Antitrypsin [2, 5]: 2.19 ± 0.10 mg/mL
Alpha-2 Macroglobulin [2, 5]: 0.79 ± 0.06 mg/mL
Alpha-Fetoprotein [2, 5]: 2.35 ± 0.19 ng/mL
Apolipoprotein A1 [2, 5]: 0.30 ± 0.01 mg/mL
Apolipoprotein CIII [2, 5]: 111.60 ± 12.92 µg/mL
Apolipoprotein H [2, 5]: 257.10 ± 19.26 µg/mL
Apolipoprotein a [2, 5]: 110.78 ± 57.76 µg/mL
Beta-2 Microglobulin [2, 5]: 1.46 ± 0.14 µg/mL
Brain-Derived Neurotrophic Factor [2, 5]: 2.88 ± 0.71 ng/mL
C Reactive Protein [2, 5]: 1.77 ± 0.26 µg/mL
CD 40 [2, 5]: 0.76 ± 0.06 ng/mL
CD 40 Ligand [2, 5]: 0.74 ± 0.27 ng/mL
Carcinoembryonic Antigen [2, 5]: 1.49 ± 0.36 ng/mL
Creatine Kinase-MB [2, 5]: 0.30 ± 0.07 ng/mL
EN-RAGE [2, 5]: 3.45 ± 0.99 ng/mL
Eotaxin-1 [2, 5]: 71.37 ± 14.78 pg/mL
Epidermal growth factor [2, 5]: 251.67 ± 48.22
Epithelial derived-neutrophil-activating protein [2, 5]: 1.68 ± 0.41 ng/mL
Factor VII [2, 5]: 548.70 ± 64.71 ng/mL
Ferritin [2, 5]: 137.76 ± 59.13 ng/mL
Fibrinogen [2, 5]: 4.81 ± 0.29 mg/mL
Fibroblast growth factor-basic [2, 5]: 102.81 ± 19.33 pg/mL
Glutathione S-Transferase [2, 5]: 0.56 ± 0.02 ng/mL
Granulocyte colony-stimulating factor [2, 5]: 5.63 ± 1.12 pg/mL
Growth hormone [2, 5]: 1.71 ± 0.79 ng/mL
Haptoglobin [2, 5]: 1.26 ± 0.18 mg/mL
ICAM-1 [2, 5]: 105.01 ± 13.81 ng/mL
Immunoglobulin A [2, 5]: 2.14 ± 0.54 mg/mL
Immunoglobulin E [2, 5]: 28.89 ± 6.20 ng/mL
Immunoglobulin M [2, 5]: 1.85 ± 0.23 mg/mL
Insulin [2, 5]: 2.94 ± 0.53 μIU/mL
Interleukin-1 beta [2, 5]: 0.50 ± 0.14 pg/mL
Interleukin-1 receptor antagonist [2, 5]: 105.05 ± 14.03 pg/mL
Interleukin-3 [2, 5]: 0.05 ± 0.01 ng/mL
Interleukin-4 [2, 5]: 62.87 ± 8.35 pg/mL
Interleukin-5 [2, 5]: 3.80 ± 0.77 pg/mL
Interleukin-7 [2, 5]: 51.27 ± 7.39 pg/mL
Interleukin-8 [2, 5]: 11.26 ± 1.25 pg/mL
Interleukin-10 [2, 5]: 10.92 ± 2.07 pg/mL
Interleukin-12p 70 [2, 5]: 59.91 ± 2.15 pg/mL
Interleukin-13 [2, 5]: 59.52 ± 6.77 pg/mL
Interleukin-15 [2, 5]: 0.45 ± 0.09 ng/mL
Interleukin-16 [2, 5]: 404.90 ± 32.28 pg/mL
Interleukin-18 [2, 5]: 237.45 ± 24.67 pg/mL
Leptin [2, 5]: 15.00 ± 4.12 ng/mL
Macrophage inflammatory protein-1α [2, 5]: 106.76 ± 12.39 pg/mL
Macrophage inflammatory protein-1β [2, 5]: 183.58 ± 36.53 pg/mL
Matrix metalloproteinase-2 [2, 5]: 2.20 ± 156.40 µg/mL
Monocyte chemotactic protein-1 [2, 5]: 164.84 ± 16.25 pg/mL
Monocyte derived chemokine [2, 5]: 426.10 ± 40.45 pg/mL
Myeloperoxidase [2, 5]: 147.83 ± 22.42 ng/mL
Myoglobin [2, 5]: 14.94 ± 2.39 ng/mL
Plasminogen activator inhibitor-1 [2, 5]: 69.86 ± 15.86 ng/mL
Pregnancy associated plasma protein A [2, 5]: 0.02 ± 0.00 mIU/mL
Prostatic Acid Phosphatase [2, 5]: 0.17 ± 0.02 ng/mL
Serum amyloid P-component [2, 5]: 16.61 ± 0.94 µg/mL
Serum glutamic oxaloacetic transaminase [2, 5]: 9.67 ± 1.64 µg/mL
Sex hormone binding globulin [2, 5]: 33.29 ± 5.40 nmol/L
Stem Cell Factor [2, 5]: 351.05 ± 50.76 pg/mL
T-cell specific protein, RANTES [2, 5]: 16.48 ± 3.62 ng/mL
Thrombopoietin [2, 5]: 1.40 ± 0.22 ng/mL
Thyroid Stimulating Hormone [2, 5]: 1.72 ± 0.30 μIU/mL
Thyroxine Binding Globulin [2, 5]: 46.51 ± 2.84 µg/mL
Tissue factor [2, 5]: 0.45 ± 0.03 ng/mL
Tissue inhibitor of metalloproteinases-1 [2, 5]: 87.97 ± 8.38 ng/mL
Tumor necrosis factor receptor-like 2 [2, 5]: 3.83 ± 0.25 ng/mL
Tumor necrosis factor α [2, 5]: 3.58 ± 0.68 pg/mL
Vascular cell adhesion molecule-1 [2, 5]: 508.80 ± 49.79 ng/mL
Vascular endothelial growth factor [2, 5]: 883.55 ± 268.15 pg/mL
Von Willebrand Factor [2, 5]: 30.03 ± 3.09 µg/mL
tumor necrosis factor α (p=0.085), matrix metalloproteinase-9 (p=0.118), serum amyloid P (p=0.188) with supplementation ([2]; not significant): trends for decrease
Matrix metalloproteinase-2 ([2]; second line so named (r60), End LG, 500 mg/d, 56 days, n = 10, mean ± SEM): 0.07601 ± 0.02246 µg/mL
Alanine amino trasferase ([3]; serum, End LG, n = 10, mean ± SEM): 25.2 ± 5.08 U/L
decrease of serum alanine aminotransferase (ALT) activity ([3]; vs end of placebo treatment, p=0.041): 13.1%
effect on parameters of CBC, CMP and MAP 1.6 ([4]; 500 mg/d, 56 days): did not adversely affect
serious adverse effects ([4]; 500 mg/d, 56 days): did not have any serious adverse effects
tolerability ([4]; 500 mg/d, 56 days): well tolerated
adverse events reported while taking the drink ([4]; out of the 11 adverse events of the study, 7 on placebo drinks): 4
